The values that follow come from US20240382548A1, “COMPOSITIONS COMPRISING CASTANEA SATIVA EXTRACTS FOR TREATMENT OF HELICOBACTER PYLORI INFECTIONS” (priority 2021, published 2024).

Converted amounts (≈) assume the structure as drawn. Like-named read-outs stand apart in the source and are kept apart here.

What is called inhibition is the share of the control response that was lost under treatment. For orientation: MIC means the lowest concentration that inhibits growth of the organism.

In data set [1] the test system is IL-8 release induced by H. pylori in GES-1 cells. The experiment in a line: IL-8 release induced by H. pylori in GES-1 cells. The format is cell-based, human. Conditions: for effect on IL-8 release induced by the pathogen: 10-50 μM. The method, then:
At the same concentrations, the extract inhibits IL-8 release induced by H. pylori in GES-1 cells; the pathogen induces IL-8 release in gastric epithelial cells, of about a 20-fold increase compared with the unstimulated control. […] EGCG 50 μM (50% inhibition) was used as a positive control.

Data set [2] deals with nuclear transcription factor NF-κB. The experiment in a line: NF-κB-guided transcription (luciferase reporter) induced by H. pylori. The format is cell-based. Conditions: 50 μM, positive control. The method, then: The nuclear transcription factor NF-κB is involved in inflammation of the gastric epithelium induced by H. pylori and is also responsible for increased expression of pro-inflammatory genes, including IL-8, in the gastric cells. […] The cells were 20 subjected to transient transfection with a plasmid containing three KB responsive sites upstream of the gene encoding for luciferase; the cells then underwent treatment with the pathogen, and the transcription was measured after 6 hours by luminescence.
On the technique in general: A reporter such as luciferase makes a cellular process visible.

Data set [3] deals with H. pylori. Briefly: Antibacterial activity (MIC) on a strain of H. pylori. Conditions: Helicobacter pylori; for MIC: read-out: MIC on H. pylori. The format is cell-based. Here is the method:
The antibacterial activity of the chestnut extract was evaluated by measuring the MIC (Minimum Inhibitory Concentration) on a strain of H. pylori.

For data set [4], the system named is non-tumoral human gastric epithelial cells GES-1. The format is cell-based. Conditions: 10-50 μM concentration range. The method, then: Firstly, the extract was analysed to establish its possible cytotoxicity (using the MTT colorimetric assay) towards non-tumoral human gastric epithelial cells GES-1 in the presence of H. pylori (ratio 1:50).

Consider `O=C(O[C@@H]1Cc2c(O)cc(O)cc2O[C@@H]1c1cc(O)c(O)c(O)c1)c1cc(O)c(O)c(O)c1` [EGCG, epigallocatechin gallate, reference compound], for which the “inhibition of IL-8 release” value in data set [1] (50 μM, positive control) came out at 50%. In data set [2], the “inhibition of NF-κB-guided transcription” value was found to be 63%.

For the compound `CN(C)[C@@H]1C(O)=C(C(N)=O)C(=O)[C@@]2(O)C(O)=C3C(=O)c4c(O)cccc4[C@@](C)(O)[C@H]3C[C@@H]12` [Tetracycline, reference compound], the inhibition at 0.25 µg/mL in data set [3] (0.25 μg/mL, positive control, read-out: inhibition of the growth of the pathogen) worked out at 80%.

In the case of `O=C1OC[C@H]2OC(=O)c3cc(O)c(O)c(O)c3-c3c(O)c(O)c(O)c4c3C(=O)O[C@H]([C@H]3OC(=O)c5c-4c(O)c(O)c(O)c5[C@H]3O)[C@@H]2OC(=O)c2cc(O)c(O)c(O)c2-c2c1cc(O)c(O)c2O` [castalagin], the “effect on IL-8 release induced by the pathogen” value in data set [1] is listed as “concentration-dependent inhibition”. For the same compound, the MIC in data set [3] (same experimental conditions as the extract) was 25 µM (≈ 23.4 µg/mL). In addition, in data set [4], the toxicity result was “did not exhibit any toxicity”.

Consider `O=C1OCC2OC(=O)c3cc(O)c(O)c(O)c3-c3c(O)c(O)c(O)c4c3C(=O)OC(C2OC(=O)c2cc(O)c(O)c(O)c2-c2c1cc(O)c(O)c2O)C1OC(=O)c2c-4c(O)c(O)c(O)c2C1O` (stereo not drawn) [vescalagin], for which the “effect on IL-8 release induced by the pathogen” value in data set [1] was “concentration-dependent inhibition”. The MIC in data set [3] was 25 µM (≈ 23.4 µg/mL). For the same compound, in data set [4], the toxicity result is “did not exhibit any toxicity”.
